{"source": "paper PMC5063900", "about": "“A phase 1 study of the safety, tolerability, pharmacokinetics, and pharmacodynamics of TAK-063, a selective PDE10A inhibitor” (Psychopharmacology, 2016)", "assay": "CNS Vital Signs (CNSVS) computerized cognition battery", "format": "in vivo, human", "details": "2 h postdose, fasting", "method": "Cognitive flexibility, attention, executive function, memory, reasoning, motor control, psychomotor speed, reaction time, and information processing speed were assessed predose and at 2 and 6 h following TAK-063 treatment using the CNSVS computerized cognition battery. The CNSVS cognition battery is a well-validated, sensitive measure and included the following tests: verbal and visual memory (VBM and VIM) tests, finger-tapping test, symbol digit coding test, Stroop test, shifting attention test, the nonverbal reasoning test, and the 4-part continuous performance test (Gualtieri and Johnson [2006]). Standardized domain scores for cognitive flexibility, composite memory, executive functioning, processing speed, psychomotor speed, reaction time, reasoning, sustained attention, verbal memory, visual memory, and working memory were reported. In all domains, a decrease in the standardized domain score is indicative of impairment.\nAll statistical analyses were generated using SAS Version 9.2 (SAS, Cary, NC, USA). The PK parameters were derived using non-compartmental methods with WinNonlin Enterprise Version 6.3 (Pharsight Corp., Mountain View, CA, USA). Frequency or descriptive statistics were used for summary of data. Where indicated, percent coefficient of variation was included in the summary of continuous data. All statistical tests were 2-tailed at α = 0.05 level for significance unless otherwise stated. A power model was used to evaluate dose proportionality by race for fasted subjects; in the event of no observed race effect, dose proportionality was assessed for all subjects. To evaluate the food effect, a paired t test was performed on T max and natural log-transformed C max, and AUCs. An ANCOVA model with baseline scores and race as covariates was used to assess the effects of TAK-063 on CNSVS domain scores.", "data": [{"smiles": "COc1cn(-c2ccc(-n3cccn3)cc2F)nc(-c2ccnn2-c2ccccc2)c1=O", "note": "[TAK-063]", "values": [{"measurement": "Cognitive flexibility domain score, Difference (TAK-063 LS mean - placebo LS mean, change from baseline)", "setting": "3 mg", "value": 1.3}, {"measurement": "Composite memory domain score, Difference (TAK-063 LS mean - placebo LS mean, change from baseline)", "setting": "3 mg", "value": -7.9}, {"measurement": "Executive functioning domain score, Difference (TAK-063 LS mean - placebo LS mean, change from baseline)", "setting": "3 mg", "value": 0.4}, {"measurement": "Processing speed domain score, Difference (TAK-063 LS mean - placebo LS mean, change from baseline)", "setting": "3 mg", "value": 2.2}, {"measurement": "Psychomotor speed domain score, Difference (TAK-063 LS mean - placebo LS mean, change from baseline)", "setting": "3 mg", "value": -1.5}, {"measurement": "Reaction time domain score, Difference (TAK-063 LS mean - placebo LS mean, change from baseline)", "setting": "3 mg", "value": 4.1}, {"measurement": "Reasoning domain score, Difference (TAK-063 LS mean - placebo LS mean, change from baseline)", "setting": "3 mg", "value": 5.7}, {"measurement": "Sustained attention domain score, Difference (TAK-063 LS mean - placebo LS mean, change from baseline)", "setting": "3 mg", "value": 4.6}, {"measurement": "Verbal memory domain score, Difference (TAK-063 LS mean - placebo LS mean, change from baseline)", "setting": "3 mg", "value": 0.9}, {"measurement": "Visual memory domain score, Difference (TAK-063 LS mean - placebo LS mean, change from baseline)", "setting": "3 mg", "value": -10.3}, {"measurement": "Working memory domain score, Difference (TAK-063 LS mean - placebo LS mean, change from baseline)", "setting": "3 mg", "value": 5.3}, {"measurement": "Cognitive flexibility domain score, Difference (TAK-063 LS mean - placebo LS mean, change from baseline)", "setting": "10 mg", "value": -3.1}, {"measurement": "Composite memory domain score, Difference (TAK-063 LS mean - placebo LS mean, change from baseline)", "setting": "10 mg", "value": -5.2}, {"measurement": "Executive functioning domain score, Difference (TAK-063 LS mean - placebo LS mean, change from baseline)", "setting": "10 mg", "value": -2.7}, {"measurement": "Processing speed domain score, Difference (TAK-063 LS mean - placebo LS mean, change from baseline)", "setting": "10 mg", "value": 0.7}, {"measurement": "Psychomotor speed domain score, Difference (TAK-063 LS mean - placebo LS mean, change from baseline)", "setting": "10 mg", "value": -8.5}, {"measurement": "Reaction time domain score, Difference (TAK-063 LS mean - placebo LS mean, change from baseline)", "setting": "10 mg", "value": -2.3}, {"measurement": "Reasoning domain score, Difference (TAK-063 LS mean - placebo LS mean, change from baseline)", "setting": "10 mg", "value": 10.8}, {"measurement": "Sustained attention domain score, Difference (TAK-063 LS mean - placebo LS mean, change from baseline)", "setting": "10 mg", "value": 0.7}, {"measurement": "Verbal memory domain score, Difference (TAK-063 LS mean - placebo LS mean, change from baseline)", "setting": "10 mg", "value": -4.0}, {"measurement": "Visual memory domain score, Difference (TAK-063 LS mean - placebo LS mean, change from baseline)", "setting": "10 mg", "value": -3.3}, {"measurement": "Working memory domain score, Difference (TAK-063 LS mean - placebo LS mean, change from baseline)", "setting": "10 mg", "value": 1.1}, {"measurement": "Cognitive flexibility domain score, Difference (TAK-063 LS mean - placebo LS mean, change from baseline)", "setting": "30 mg", "value": 0.2}, {"measurement": "Composite memory domain score, Difference (TAK-063 LS mean - placebo LS mean, change from baseline)", "setting": "30 mg", "value": 2.8}, {"measurement": "Executive functioning domain score, Difference (TAK-063 LS mean - placebo LS mean, change from baseline)", "setting": "30 mg", "value": 0.5}, {"measurement": "Processing speed domain score, Difference (TAK-063 LS mean - placebo LS mean, change from baseline)", "setting": "30 mg", "value": 4.3}, {"measurement": "Psychomotor speed domain score, Difference (TAK-063 LS mean - placebo LS mean, change from baseline)", "setting": "30 mg", "value": -1.7}, {"measurement": "Reaction time domain score, Difference (TAK-063 LS mean - placebo LS mean, change from baseline)", "setting": "30 mg", "value": 3.1}, {"measurement": "Reasoning domain score, Difference (TAK-063 LS mean - placebo LS mean, change from baseline)", "setting": "30 mg", "value": 6.4}, {"measurement": "Sustained attention domain score, Difference (TAK-063 LS mean - placebo LS mean, change from baseline)", "setting": "30 mg", "value": 10.3}, {"measurement": "Verbal memory domain score, Difference (TAK-063 LS mean - placebo LS mean, change from baseline)", "setting": "30 mg", "value": 12.4}, {"measurement": "Visual memory domain score, Difference (TAK-063 LS mean - placebo LS mean, change from baseline)", "setting": "30 mg", "value": -5.2}, {"measurement": "Working memory domain score, Difference (TAK-063 LS mean - placebo LS mean, change from baseline)", "setting": "30 mg", "value": 6.5}, {"measurement": "Cognitive flexibility domain score, Difference (TAK-063 LS mean - placebo LS mean, change from baseline)", "setting": "100 mg", "value": -20.2}, {"measurement": "Composite memory domain score, Difference (TAK-063 LS mean - placebo LS mean, change from baseline)", "setting": "100 mg", "value": -24.1}, {"measurement": "Executive functioning domain score, Difference (TAK-063 LS mean - placebo LS mean, change from baseline)", "setting": "100 mg", "value": -17.8}, {"measurement": "Processing speed domain score, Difference (TAK-063 LS mean - placebo LS mean, change from baseline)", "setting": "100 mg", "value": -6.1}, {"measurement": "Psychomotor speed domain score, Difference (TAK-063 LS mean - placebo LS mean, change from baseline)", "setting": "100 mg", "value": -15.2}, {"measurement": "Reaction time domain score, Difference (TAK-063 LS mean - placebo LS mean, change from baseline)", "setting": "100 mg", "value": -15.6}, {"measurement": "Reasoning domain score, Difference (TAK-063 LS mean - placebo LS mean, change from baseline)", "setting": "100 mg", "value": 4.6}, {"measurement": "Sustained attention domain score, Difference (TAK-063 LS mean - placebo LS mean, change from baseline)", "setting": "100 mg", "value": -7.0}, {"measurement": "Verbal memory domain score, Difference (TAK-063 LS mean - placebo LS mean, change from baseline)", "setting": "100 mg", "value": -24.0}, {"measurement": "Visual memory domain score, Difference (TAK-063 LS mean - placebo LS mean, change from baseline)", "setting": "100 mg", "value": -15.4}, {"measurement": "Working memory domain score, Difference (TAK-063 LS mean - placebo LS mean, change from baseline)", "setting": "100 mg", "value": -3.8}, {"measurement": "Cognitive flexibility domain score, Difference (TAK-063 LS mean - placebo LS mean, change from baseline)", "setting": "300 mg", "value": -30.9}, {"measurement": "Composite memory domain score, Difference (TAK-063 LS mean - placebo LS mean, change from baseline)", "setting": "300 mg", "value": -26.9}, {"measurement": "Executive functioning domain score, Difference (TAK-063 LS mean - placebo LS mean, change from baseline)", "setting": "300 mg", "value": -29.0}, {"measurement": "Processing speed domain score, Difference (TAK-063 LS mean - placebo LS mean, change from baseline)", "setting": "300 mg", "value": -17.6}, {"measurement": "Psychomotor speed domain score, Difference (TAK-063 LS mean - placebo LS mean, change from baseline)", "setting": "300 mg", "value": -18.0}, {"measurement": "Reaction time domain score, Difference (TAK-063 LS mean - placebo LS mean, change from baseline)", "setting": "300 mg", "value": -10.3}, {"measurement": "Reasoning domain score, Difference (TAK-063 LS mean - placebo LS mean, change from baseline)", "setting": "300 mg", "value": 0.5}, {"measurement": "Sustained attention domain score, Difference (TAK-063 LS mean - placebo LS mean, change from baseline)", "setting": "300 mg", "value": -9.0}, {"measurement": "Verbal memory domain score, Difference (TAK-063 LS mean - placebo LS mean, change from baseline)", "setting": "300 mg", "value": -26.7}, {"measurement": "Visual memory domain score, Difference (TAK-063 LS mean - placebo LS mean, change from baseline)", "setting": "300 mg", "value": -17.2}, {"measurement": "Working memory domain score, Difference (TAK-063 LS mean - placebo LS mean, change from baseline)", "setting": "300 mg", "value": -3.1}, {"measurement": "Cognitive flexibility domain score, Difference (TAK-063 LS mean - placebo LS mean, change from baseline)", "setting": "1000 mg", "value": -19.6}, {"measurement": "Composite memory domain score, Difference (TAK-063 LS mean - placebo LS mean, change from baseline)", "setting": "1000 mg", "value": -16.6}, {"measurement": "Executive functioning domain score, Difference (TAK-063 LS mean - placebo LS mean, change from baseline)", "setting": "1000 mg", "value": -16.6}, {"measurement": "Processing speed domain score, Difference (TAK-063 LS mean - placebo LS mean, change from baseline)", "setting": "1000 mg", "value": -17.9}, {"measurement": "Psychomotor speed domain score, Difference (TAK-063 LS mean - placebo LS mean, change from baseline)", "setting": "1000 mg", "value": -18.7}, {"measurement": "Reaction time domain score, Difference (TAK-063 LS mean - placebo LS mean, change from baseline)", "setting": "1000 mg", "value": -7.1}, {"measurement": "Reasoning domain score, Difference (TAK-063 LS mean - placebo LS mean, change from baseline)", "setting": "1000 mg", "value": -0.5}, {"measurement": "Sustained attention domain score, Difference (TAK-063 LS mean - placebo LS mean, change from baseline)", "setting": "1000 mg", "value": -5.0}, {"measurement": "Verbal memory domain score, Difference (TAK-063 LS mean - placebo LS mean, change from baseline)", "setting": "1000 mg", "value": -10.0}, {"measurement": "Visual memory domain score, Difference (TAK-063 LS mean - placebo LS mean, change from baseline)", "setting": "1000 mg", "value": -14.5}, {"measurement": "Working memory domain score, Difference (TAK-063 LS mean - placebo LS mean, change from baseline)", "setting": "1000 mg", "value": -2.5}]}]}
